Legend:
[1] = Tissue levels after 5 day repeated dosing in rat; format: in vivo; conditions: 20 mg/kg twice daily for 5 days, 6 hours after last dose
Experimental: The decreased tissue accumulation of compound 3 vis-a-vis 1 was confirmed in a multi-dose experiment. Rats received 20 mg/kg of either compound twice daily for 5 days. Animal were sacrificed 6 hours after the last dose and levels of compounds in kidneys, liver and lung were determined. FIG. 14 depicts the measured tissue levels. Approximately 100-fold, 60-fold, and 10-fold less compound 3 accumulated in kidney, liver and lung respectively, as compared to compound 1.

[2] = Acute toxicity, minimal lethal dose after IV bolus in mice; format: in vivo, mouse; conditions: IV bolus into tail vein, lethal for at least one of three mice
Experimental: Acute toxicity was measured as minimal lethal dose (MLD). MLD is defined as a minimal concentration of a compound that has lethal effect for at least one mouse from the group of three mice after IV bolus injection into the mouse tail vein.

[3] = system: Strain S41, a clinical isolate; assay: microbe, parasite or virus in culture; format: cell-based, P. aeruginosa; conditions: strain S41
[4] = system: Citrobacter freundii 13; assay: Antibiotic MIC with fixed concentration of compound 21, Citrobacter freundii 13; format: cell-based
Experimental: (§1) To further characterize the clinical potential of tigecycline/EPI combinations, the microbiological activity of tigecycline in combination with compound 21 was investigated using clinical isolates of P. aeruginosa and other gram-negative bacteria. In several experiments, described below, the impact of a fixed concentration of compound 21 (2.5 μg/ml) on susceptibility to tigecycline was determined.
(§2) The impact of compound 21 on the activity of tigecycline against representative members of Enterobacteriacaea was also tested.

[5] = system: Klebsiella pneumonia 79; assay: Antibiotic MIC with fixed concentration of compound 21, Klebsiella pneumonia 79; format: cell-based
Experimental: as §1, §2

[6] = azithromycin MIC with compound 21
[7] = levofloxacin MIC with compound 21 at […]
[8] = tigecycline MIC with compound 21 at […]

SMILES	less compound 3 accumulated as compared to compound 1 ([1]; rat kidney)	less compound 3 accumulated as compared to compound 1 ([1]; rat liver) [fold]	less compound 3 accumulated as compared to compound 1 ([1]; rat lung) [fold]	MLD (minimal lethal dose) [2] [mg/kg]	Tigecycline MIC with Compound 21 at 5 μg/ml [3] [µg/mL]	Mutation Frequency on Tigecycline at 4 μg/ml with Compound 21 at 10 μg/ml ([3]; 4× MIC)	reduction of the frequency of emergence of tigecycline resistance ([3]; compound 21 at 10 μg/ml)	Azi + EPI (MIC) [4, 6]	Levo + EPI at […] (MIC) [4, 7]	Tig + EPI at […] (MIC) [4, 8]	Azi + EPI (MIC) [5, 6]	Levo + EPI at […] (MIC) [5, 7]	Tig + EPI at […] (MIC) [5, 8]
NCCC[C@H](N)C(=O)N[C@H](CCc1ccccc1)C(=O)Nc1cnc2ccccc2c1 [Compound 3, 2-(S),5-Diamino-pentanoic acid [3-phenyl-1-(R)-(quinolin-3-ylcarbamoyl)-propyl]-amide]	Approximately 100 fold	~60	~10	25	–	–	–	–	–	–	–	–	–
NCCC[C@H](N)C(=O)N[C@H](Cc1ccc(C(F)(F)F)cc1)C(=O)Nc1cnc2ccccc2c1 [Compound 21, 2-(S),5-Diamino-pentanoic acid [1-(R)-(quinolin-3-ylcarbamoyl)-2-(4-trifluoromethyl-phenyl)-ethyl]amide]	–	–	–	–	0.125	<1.5 × 10^−10	at least three orders of magnitude	≦0.125	8	0.125	0.25	4	0.25
